Patent US8907092B2, “Inhibitors of IAP” (Genentech, Inc., priority 2007, dated 2014)
*1 amine or outer side, *2 acyl side, *3 side chain or, on linkers, in order; H or OH if unused. Where a SMILES comes first, the peptide text is derived from it. Bridges are numbered along the chain shown (N, C = ends). Roman numbers before positions name the chains, in order. [ ]: non-standard residue; d: D form. NH(CH2)3(OCH2CH2)2O(CH2)3NH = C(CN[*:1])COCCOCCOCCCN[*:2]; Dip = N[C@H](C(=O)O)C(c1ccccc1)c1ccccc1; Chg = N[C@H](C(=O)O)C1CCCCC1; NMeA = CN[C@@H](C)C(=O)O; dNMeA = CN[C@H](C)C(=O)O

biological target: T1, MLXBIR3SG (Homo sapiens, UniProt Q96CA5, S150G); assay: Fluorescence Polarization Peptide Binding Assay; conditions: competition with 5 nM AVP-diPhe-FAM probe, MLXBIR3SG at 30 nM
T1 sequence (Q96CA5 with tags, fused parts or gaps S150G): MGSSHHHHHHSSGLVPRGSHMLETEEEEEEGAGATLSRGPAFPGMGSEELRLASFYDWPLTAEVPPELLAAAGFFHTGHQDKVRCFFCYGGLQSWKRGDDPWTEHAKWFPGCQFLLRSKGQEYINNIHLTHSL
Method: In the following experiments was used a chimeric BIR domain referred to as MLXBIR3SG in which 11 of 110 residues correspond to those found in XIAP-BIR3, while the remainder correspond to ML-IAP-BIR. […] The improved caspase-9 inhibition of the chimeric BIR domain MLXBIR3SG has been correlated with increased inhibition of doxorubicin-induced apoptosis when transfected into MCF7 cells.
Polarization experiments were performed on an Analyst HT 96-384 (Molecular Devices Corp.) according to the procedure of Keating, S. M., Marsters, J, Beresini, M., Ladner, C., Zioncheck, K., Clark, K., Arellano, F., and Bodary., S. (2000) in Proceedings of SPIE: In Vitro Diagnostic Instrumentation (Cohn, G. E., Ed.) pp 128-137, Bellingham, Wash. Samples for fluorescence polarization affinity measurements were prepared by addition of 1:2 serial dilutions starting at a final concentration of 5 μM of MLXBIR3SG in polarization buffer (50 mM Tris [pH 7.2], 120 mM NaCl, 1% bovine globulins 5 mM DTT and 0.05% octylglucoside) to 5-carboxyflourescein-conjugated AVPdi-Phe-NH2 (AVP-diPhe-FAM) at 5 nM final concentration.
The reactions were read after an incubation time of 10 minutes at room temperature with standard cut-off filters for the fluorescein fluorophore (λex=485 nm; λem=530 nm) in 96-well black HE96 plates (Molecular Devices Corp.). Fluorescence values were plotted as a function of the protein concentration, and the IC50s were obtained by fitting the data to a 4-parameter equation using Kaleidograph software (Synergy software, Reading, Pa.). Competition experiments were performed by addition of the MLXBIR3SG at 30 nM to wells containing 5 nM of the AVP-diPhe-FAM probe as well as 1:3 serial dilutions of antagonist compounds starting at a concentration of 300 μM in the polarization buffer. Samples were read after a 10-minute incubation. Fluorescence polarization values were plotted as a function of the antagonist concentration, and the IC50 values were obtained by fitting the data to a 4-parameter equation using Kaleidograph software (Synergy software, Reading, Pa.) Inhibition constants (Ki) for the antagonists were determined from the IC50 values.

Row | SMILES | IC50
1 | CN[C@@H](C)C(=O)N[C@H](C(=O)N1CC(OCc2ccc(C#CC#Cc3ccc(CO[C@H]4C[C@@H](C(=O)Nc5snnc5-c5ccccc5)N(C(=O)[C@@H](NC(=O)[C@H](C)NC)C5CCCCC5)C4)cc3)cc2)C[C@H]1C(=O)Nc1snnc1-c1ccccc1)C1CCCCC1 (stereo partly drawn) [compound 4] | 2410 nM
2 | CN[C@@H](C)C(=O)N[C@H](C(=O)N1CCC[C@H]1C(=O)N[C@H](C(=O)NCCCOCCOCCOCCCNC(=O)[C@@H](NC(=O)[C@@H]1CCCN1C(=O)[C@@H](NC(=O)[C@@H](C)NC)C1CCCCC1)C(c1ccccc1)c1ccccc1)C(c1ccccc1)c1ccccc1)C1CCCCC1 [compound 10] (I: H-[NMeA][Chg]P[Dip] / II: H-[dNMeA][Chg]P[Dip]; linker I:C-II:C via NH(CH2)3(OCH2CH2)2O(CH2)3NH) | 1320 nM
3 | CN[C@@H](C)C(=O)N[C@H](C(=O)N1CCC[C@H]1C(=O)Nc1sc(-c2nccs2)nc1-c1ccccc1)c1ccc(OCC#CC#CCOc2ccc([C@H](NC(=O)[C@H](C)N)C(=O)N3CCC[C@H]3C(=O)Nc3sc(-c4nccs4)nc3-c3ccccc3)cc2)cc1 [compound 11] | 1030 nM
4 | CN[C@@H](C)C(=O)N[C@H](C(=O)N1CCC[C@H]1C(=O)Nc1sc(-c2nccn2C)nc1-c1ccccc1)c1ccc(OCC#CC#CCOc2ccc([C@H](NC(=O)[C@H](C)NC)C(=O)N3CCC[C@H]3C(=O)Nc3sc(-c4nccn4C)nc3-c3ccccc3)cc2)cc1 [compound 12] | 1100 nM
5 | CN[C@@H](C)C(=O)N[C@H](C(=O)N1CCC[C@H]1C(=O)Nc1sc(-c2ccccn2)nc1-c1ccccc1)c1ccc(OCC#CC#CCOc2ccc([C@H](NC(=O)[C@H](C)NC)C(=O)N3CCC[C@H]3C(=O)Nc3sc(-c4nccn4C)nc3-c3ccccc3)cc2)cc1 [compound 13] | 3820 nM
6 | CN[C@@H](C)C(=O)N[C@H](C(=O)N1CCC[C@H]1C(=O)Nc1sc(-c2ccccn2)nc1-c1ccccc1)c1ccc(OCC#CC#CCOc2ccc([C@H](NC(=O)[C@H](C)NC)C(=O)N3CCC[C@H]3C(=O)Nc3sc(-c4ccccn4)nc3-c3ccccc3)cc2)cc1 [compound 14] | 2350 nM
7 | CN[C@@H](C)C(=O)N[C@H](C(=O)N1CCC[C@H]1C(=O)Nc1sc(C(=O)NCCCCCCCCCCCNC(=O)c2nc(-c3ccccc3)c(NC(=O)[C@@H]3CCCN3C(=O)[C@@H](NC(=O)[C@H](C)NC)C3CCCCC3)s2)nc1-c1ccccc1)C1CCCCC1 [compound 15] | 3830 nM
8 | CN[C@@H](C)C(=O)N[C@H](C(=O)N1CCC[C@H]1C(=O)Nc1sc(C(=O)NCCOCCOCCNC(=O)c2nc(-c3ccccc3)c(NC(=O)[C@@H]3CCCN3C(=O)[C@@H](NC(=O)[C@H](C)NC)C3CCCCC3)s2)nc1-c1ccccc1)C1CCCCC1 [compound 16] | 234 nM
9 | CN[C@@H](C)C(=O)N[C@H](C(=O)C1CCCN1c1nc2c(-c3ccccc3)nccc2s1)C1CCN(C(=O)NCCCCCCNC(=O)N2CCC([C@H](NC(=O)[C@H](C)NC)C(=O)N3CCC[C@H]3c3nc4c(-c5ccccc5)nccc4s3)CC2)CC1 (stereo partly drawn) [compound 17] | 168 nM
10 | CN[C@@H](C)C(=O)N[C@H](C(=O)N1CCC[C@H]1C(=O)Nc1sc(C(=O)NCC(O)CNC(=O)c2nc(-c3ccccc3)c(NC(=O)[C@@H]3CCCN3C(=O)[C@@H](NC(=O)[C@H](C)NC)C3CCCCC3)s2)nc1-c1ccccc1)C1CCCCC1 [compound 22] | 378 nM
11 | CN[C@@H](C)C(=O)N[C@H](C(=O)N1CCC[C@H]1C(=O)Nc1sc(C(=O)NCC(C)(C)CNC(=O)c2nc(-c3ccccc3)c(NC(=O)[C@@H]3CCCN3C(=O)[C@@H](NC(=O)[C@H](C)NC)C3CCCCC3)s2)nc1-c1ccccc1)C1CCCCC1 [compound 23] | 679 nM
12 | CN[C@@H](C)C(=O)N[C@H](C(=O)N1CCC[C@H]1C(=O)Nc1sc(C(=O)NCc2ccc(CNC(=O)c3nc(-c4ccccc4)c(NC(=O)C4CCCN4C(=O)[C@H](NC(=O)[C@@H](C)NC)C4CCCCC4)s3)cc2)nc1-c1ccccc1)C1CCCCC1 (stereo partly drawn) [compound 24] | 1380 nM
